This is an account of results in patent US10577363B2, “Substituted piperidine compounds” (EPIZYME, INC., priority 2014, dated 2020).

Assay [1] addresses T1, SMYD3 (Homo sapiens (Human), UniProt Q9H7B4). The experiment in a line: SMYD3 biochemical assay (SPA, 3H-SAM methylation of MEKK2 protein substrate). The following applies: Table 2A; read-out: SMYD3 Biochem IC50. An outline of the steps: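 Tritium incorporation into GST-MEKK2 is counted by scintillation proximity after citric acid bead capture. Native human SMYD3 is preincubated with test compound for 30 min at room temperature at pH 8.0 (Tris-Cl, TCEP, BSG, Tween 20) before 3H-SAM and substrate are added; cold SAM at 100 uM final stops turnover.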

Assay [2] concerns the target T1, SMYD3. The assay can be described thus: SMYD3 cell assay (Trimethyl-MEKK2 In-Cell Western in 293T/17 cells). The assay is classed as cell-based. The following applies: Table 2A; read-out: SMYD3 Cell IC50. In short, it runs like this: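 In-Cell Western ratio of trimethyl-Lys260 MEKK2 to anti-flag signal; percent inhibition from DMSO and maximum-inhibition controls, IC50 by non-linear regression, triplicates.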

T1 sequence (Q9H7B4 whole entry): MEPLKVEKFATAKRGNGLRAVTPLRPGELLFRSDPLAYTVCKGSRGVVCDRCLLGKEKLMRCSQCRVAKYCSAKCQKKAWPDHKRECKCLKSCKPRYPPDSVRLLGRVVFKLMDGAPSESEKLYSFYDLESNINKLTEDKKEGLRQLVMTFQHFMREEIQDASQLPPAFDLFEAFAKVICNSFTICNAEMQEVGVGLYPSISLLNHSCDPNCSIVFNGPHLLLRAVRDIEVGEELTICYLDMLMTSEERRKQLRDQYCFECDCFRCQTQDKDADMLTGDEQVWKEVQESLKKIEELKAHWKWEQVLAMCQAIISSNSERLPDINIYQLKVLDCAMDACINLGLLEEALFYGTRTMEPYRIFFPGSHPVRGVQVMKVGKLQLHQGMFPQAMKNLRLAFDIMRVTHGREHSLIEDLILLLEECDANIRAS

Usually IC50 stands for the midpoint of a concentration-inhibition curve. For `C[C@H]1C[C@@H](NC(=O)c2cc(C3CC3)on2)CCN1S(=O)(=O)CCCNCc1ccc2ccccc2c1` [compound 578, 5-cyclopropyl-N-((2S,4S)-2-methyl-1-((3-((naphthalen-2-ylmethyl)amino)propyl)sulfonyl)piperidin-4-yl)isoxazole-3-carboxamide], the IC50 at SMYD3 [1] was determined as 9.4 nM; at SMYD3 [2], 289 nM.

`C[C@@H]1C[C@H](NC(=O)c2cc(C3CC3)on2)CCN1S(=O)(=O)CC1CCN(CCN2CCCCC2)CC1` [compound 579, 5-cyclopropyl-N-((2R,4R)-2-methyl-1-(((1-(2-(piperidin-1-yl)ethyl)piperidin-4-yl)methyl)sulfonyl)piperidin-4-yl)isoxazole-3-carboxamide]: the IC50 on SMYD3 [1] was 9.5 nM; at SMYD3 [2], 587 nM.

`O=C(N[C@H]1C[C@H]2CC[C@@H](C1)N2S(=O)(=O)N1CC2(CNC2)C1)c1cc(C2CC2)on1` [compound 580, N-((1R,3r,5S)-8-((2,6-diazaspiro[3.3]heptan-2-yl)sulfonyl)-8-azabicyclo[3.2.1]octan-3-yl)-5-cyclopropylisoxazole-3-carboxamide]: the IC50 at SMYD3 [1] was determined as 9.7 nM; at SMYD3 [2], 88.9 nM.

For `CC(C)NC1CCN(S(=O)(=O)N2CC[C@H](NC(=O)c3cc(C4CC4)on3)C[C@@H]2C)CC1` [compound 581, 5-cyclopropyl-N-((2S,4S)-1-((4-(isopropylamino)piperidin-1-yl)sulfonyl)-2-methylpiperidin-4-yl)isoxazole-3-carboxamide], the results for the IC50 on SMYD3 [1] and on SMYD3 [2] were 10.1 nM and 143 nM, respectively.

`CN1C2CC1CN(S(=O)(=O)N1[C@@H]3CC[C@H]1C[C@@H](NC(=O)c1cc(C4CC4)on1)C3)C2` [compound 582, 5-cyclopropyl-N-((1R,3r,5S)-8-((6-methyl-3,6-diazabicyclo[3.1.1]heptan-3-yl)sulfonyl)-8-azabicyclo[3.2.1]octan-3-yl)isoxazole-3-carboxamide]: the IC50 amounted to 10.1 nM at SMYD3 [1] and 151 nM at SMYD3 [2].

On to `COCCN1CCC(CS(=O)(=O)N2CC[C@@H](NC(=O)c3cc(C4CC4)on3)C[C@H]2C)CC1` [compound 583, 5-cyclopropyl-N-((2R,4R)-1-(((1-(2-methoxyethyl)piperidin-4-yl)methyl)sulfonyl)-2-methylpiperidin-4-yl)isoxazole-3-carboxamide], for which the IC50 at SMYD3 [1] amounted to 10.4 nM; at SMYD3 [2], 234 nM.

`CC[C@H]1CN(S(=O)(=O)N2CC[C@H](NC(=O)c3cc(C4CC4)on3)C[C@@H]2C)CCN1` [compound 584, 5-cyclopropyl-N-((2S,4S)-1-(((S)-3-ethylpiperazin-1-yl)sulfonyl)-2-methylpiperidin-4-yl)isoxazole-3-carboxamide]: the IC50 was determined as 10.5 nM on SMYD3 [1] and 159 nM at SMYD3 [2].

As for `C[C@H]1C[C@@H](NC(=O)c2cc(C3CC3)on2)CCN1S(=O)(=O)N1CCCNCC1` [compound 585, N-((2S,4S)-1-((1,4-diazepan-1-yl)sulfonyl)-2-methylpiperidin-4-yl)-5-cyclopropylisoxazole-3-carboxamide], the IC50 was 10.6 nM on SMYD3 [1] and 186 nM at SMYD3 [2].

Regarding `CN(CCN)CCCS(=O)(=O)N1[C@@H]2CC[C@H]1C[C@@H](NC(=O)c1cc(C3CC3)on1)C2` [compound 586, N-((1R,3r,5S)-8-((3-((2-aminoethyl)(methyl)amino)propyl)sulfonyl)-8-azabicyclo[3.2.1]octan-3-yl)-5-cyclopropylisoxazole-3-carboxamide], the results for the IC50 at SMYD3 [1] and at SMYD3 [2] were 10.7 nM and 263 nM, respectively.

For the compound `C[C@H]1C[C@@H](NC(=O)c2cc(C3CC3)on2)CCN1S(=O)(=O)CC1CCN(CCN2CCOCC2)CC1` [compound 587, 5-cyclopropyl-N-((2S,4S)-2-methyl-1-(((1-(2-morpholinoethyl)piperidin-4-yl)methyl)sulfonyl)piperidin-4-yl)isoxazole-3-carboxamide], the IC50 was determined as 10.7 nM on SMYD3 [1] and 311 nM at SMYD3 [2].

Consider `C[C@H]1C[C@@H](NC(=O)c2cc(C3CC3)on2)CCN1S(=O)(=O)N1CC2CC(C1)N2` [compound 588, N-((2S,4S)-1-((3,6-diazabicyclo[3.1.1]heptan-3-yl)sulfonyl)-2-methylpiperidin-4-yl)-5-cyclopropylisoxazole-3-carboxamide], for which the IC50 at SMYD3 [1] was found to be 10.8 nM; at SMYD3 [2] it was 151 nM.

On to `C[C@@H]1C[C@H](NC(=O)c2cc(C3CC3)on2)CCN1S(=O)(=O)CC1CCN(CCO)CC1` [compound 589, 5-cyclopropyl-N-((2R,4R)-1-(((1-(2-hydroxyethyl)piperidin-4-yl)methyl)sulfonyl)-2-methylpiperidin-4-yl)isoxazole-3-carboxamide], for which the results for the IC50 at SMYD3 [1] and on SMYD3 [2] were 10.9 nM and 152 nM, respectively.

Take `CN(C)CCNCCCS(=O)(=O)N1[C@@H]2CC[C@H]1C[C@@H](NC(=O)c1cc(C3CC3)on1)C2` [compound 590, 5-cyclopropyl-N-((1R,3r,5S)-8-((3-((2-(dimethylamino)ethyl)amino)propyl)sulfonyl)-8-azabicyclo[3.2.1]octan-3-yl)isoxazole-3-carboxamide]: the 50% inhibitory concentration (IC50) is 10.9 nM on SMYD3 [1] and 175 nM at SMYD3 [2].

Regarding `CNCCCS(=O)(=O)N1[C@@H]2CC[C@H]1C[C@@H](NC(=O)c1cc(C3CC3)on1)C2` [compound 591, 5-cyclopropyl-N-((1R,3r,5S)-8-((3-(methylamino)propyl)sulfonyl)-8-azabicyclo[3.2.1]octan-3-yl)isoxazole-3-carboxamide], the half-maximal inhibitory concentration (IC50) at SMYD3 [1] is 11.1 nM; at SMYD3 [2], 150 nM.

As for `C[C@H]1C[C@@H](NC(=O)c2cc(C3CC3)on2)CCN1S(=O)(=O)N1C[C@@H]2C[C@H]1CN2C` [compound 592, 5-cyclopropyl-N-((2S,4S)-2-methyl-1-(((1S,4S)-5-methyl-2,5-diazabicyclo[2.2.1]heptan-2-yl)sulfonyl)piperidin-4-yl)isoxazole-3-carboxamide], the IC50 at SMYD3 [1] stood at 11.6 nM; at SMYD3 [2] it was 106 nM.

For the compound `CN(C)CCCS(=O)(=O)N1[C@@H]2CC[C@H]1C[C@@H](NC(=O)c1cc(C3CC3)on1)C2` [compound 593, 5-cyclopropyl-N-((1R,3r,5S)-8-((3-(dimethylamino)propyl)sulfonyl)-8-azabicyclo[3.2.1]octan-3-yl)isoxazole-3-carboxamide], the figures for the IC50 on SMYD3 [1] and at SMYD3 [2] were 11.8 nM and 147 nM, respectively.

As for `O=C(N[C@H]1C[C@H]2CC[C@@H](C1)N2S(=O)(=O)NC1CC2(CNC2)C1)c1cc(C2CC2)on1` [compound 594, N-((1R,3r,5S)-8-(N-(2-azaspiro[3.3]heptan-6-yl)sulfamoyl)-8-azabicyclo[3.2.1]octan-3-yl)-5-cyclopropylisoxazole-3-carboxamide], the IC50 on SMYD3 [1] was determined as 12 nM; on SMYD3 [2], 669 nM.

On to `C[C@@H]1CN(S(=O)(=O)N2CCNCC2)[C@H](C)C[C@@H]1NC(=O)c1cc(C2CC2)on1` [compound 595, 5-cyclopropyl-N-((2R,4S,5R)-2,5-dimethyl-1-(piperazin-1-ylsulfonyl)piperidin-4-yl)isoxazole-3-carboxamide], for which the IC50 on SMYD3 [1] came to 12.6 nM; on SMYD3 [2] it was 77.8 nM.

Consider `NCCNCCS(=O)(=O)N1[C@@H]2CC[C@H]1C[C@@H](NC(=O)c1cc(C3CC3)on1)C2` [compound 596, N-((1R,3r,5S)-8-((2-((2-aminoethyl)amino)ethyl)sulfonyl)-8-azabicyclo[3.2.1]octan-3-yl)-5-cyclopropylisoxazole-3-carboxamide], for which the IC50 at SMYD3 [1] turned out to be 12.8 nM; on SMYD3 [2], 379 nM.

Regarding `O=C(N[C@H]1C[C@H]2CC[C@@H](C1)N2S(=O)(=O)CCCN1CCCC1)c1cc(C2CC2)on1` [compound 597, 5-cyclopropyl-N-((1R,3r,5S)-8-((3-(pyrrolidin-1-yl)propyl)sulfonyl)-8-azabicyclo[3.2.1]octan-3-yl)isoxazole-3-carboxamide], the concentration for half-maximal inhibition (IC50) stood at 12.9 nM on SMYD3 [1] and 217 nM at SMYD3 [2].

With `CN(CCN)CCS(=O)(=O)N1[C@@H]2CC[C@H]1C[C@@H](NC(=O)c1cc(C3CC3)on1)C2` [compound 598, N-((1R,3r,5S)-8-((2-((2-aminoethyl)(methyl)amino)ethyl)sulfonyl)-8-azabicyclo[3.2.1]octan-3-yl)-5-cyclopropylisoxazole-3-carboxamide], the IC50 on SMYD3 [1] came out at 13.1 nM; on SMYD3 [2] it was 431 nM.

For the compound `CN(C)CCNCCS(=O)(=O)N1[C@@H]2CC[C@H]1C[C@@H](NC(=O)c1cc(C3CC3)on1)C2` [compound 599, 5-cyclopropyl-N-((1R,3r,5S)-8-((2-((2-(dimethylamino)ethyl)amino)ethyl)sulfonyl)-8-azabicyclo[3.2.1]octan-3-yl)isoxazole-3-carboxamide], the IC50 at SMYD3 [1] was 13.5 nM; on SMYD3 [2], 213 nM.

Regarding `CC1(C)CN(S(=O)(=O)N2[C@@H]3CC[C@H]2C[C@@H](NC(=O)c2cc(C4CC4)on2)C3)CCN1` [compound 600, 5-cyclopropyl-N-((1R,3r,5S)-8-((3,3-dimethylpiperazin-1-yl)sulfonyl)-8-azabicyclo[3.2.1]octan-3-yl)isoxazole-3-carboxamide], the IC50 at SMYD3 [1] stood at 13.5 nM; at SMYD3 [2], 118 nM.

With `C[C@H]1CN(S(=O)(=O)CCCN)[C@@H](C)C[C@H]1NC(=O)c1cc(C2CC2)on1` [compound 601, N-((2S,4R,5S)-1-((3-aminopropyl)sulfonyl)-2,5-dimethylpiperidin-4-yl)-5-cyclopropylisoxazole-3-carboxamide], the values for the IC50 at SMYD3 [1] and on SMYD3 [2] were 14.3 nM and 333 nM, respectively.

Take `O=C(N[C@H]1C[C@H]2CC[C@@H](C1)N2S(=O)(=O)N1C2CCC1CNC2)c1cc(C2CC2)on1` [compound 602, N-((1R,3r,5S)-8-((3,8-diazabicyclo[3.2.1]octan-8-yl)sulfonyl)-8-azabicyclo[3.2.1]octan-3-yl)-5-cyclopropylisoxazole-3-carboxamide]: the concentration for half-maximal inhibition (IC50) at SMYD3 [1] worked out at 14.5 nM; at SMYD3 [2] it was 132 nM.
